Reference: patent publication US8241647B2, “Amphiphilic molecule, molecular assembly comprising the amphiphilic molecule, and use of the molecular assembly” (Waseda University, priority 2007, dated 2012)

Experiments:
[1] = Measurement of zeta potential of liposomes; format: physicochemical; settings: liposome compound/cholesterol/PEG-Glu2C18 (5/5/0.03 molar ratio); acetate buffers 20 mM; 37°C
Procedure: Portions of the prepared liposome ([lipid]=10 mg/ml) were respectively added to acetate buffers with different pHs (7.4, 7, 6, 5, 4) (30 mM) to the final concentration of [lipid]=1 mg/mL, and then the zeta potential at 37° C. was measured. Zetasizer 4 manufactured by Malvern was used. A capillary cell was filled with a liposome-dispersed liquid obtained by dilution to the measurement concentration, and the measurement was performed at 37° C. 3 times.
Portions of the prepared liposome ([lipid]=10 mg/ml) were respectively added to acetate buffers with different pHs (7.4, 7, 6, 5, 4) (20 mM) to the final concentration of [lipid]=1 mg/mL, and then the zeta potential at 37° C. was measured.
Portions of each of the prepared liposomes ([lipid]=10 mg/ml) were respectively added to acetate buffers with different pHs (7.4, 7, 6, 5, 4) (20 mM) to the final concentration of [lipid]=1 mg/mL, and then the zeta potential at 37° C. was measured.

[2] = Degree of fusion with anionic liposome (Example 9); settings: liposome compound/cholesterol/PEG-Glu2C18, 37°C, 30 minutes
Procedure: In a manner similar to that in Example 2, the degree of fusion of the pH-responsive liposome with respect to the anionic liposome (DOPC/DPPG, 5/1 (molar ratio)) was calculated. The measurement method was as follows. 50 μL of 1 mM anionic liposome and 50 μL of 9 mM (converted to the mixed lipid basis) pH-responsive liposome were added to 1.9 mL of each of acetate buffers with different pHs and allowed to stand at 37° C. 30 minutes later, […] of the mixture was dividedly poured and added to 1.9 mL of HEPES buffer (pH 7.4). The resultant mixture was transferred to a quartz cell and subjected to fluorescence measurement (λex: 460 nm, 530 nm). The measurement was carried out using RF-5300PC manufactured by Shimadzu.

[3] = Preparation of liposome from mixed lipid (dispersion in water, high-pressure extrusion); format: physicochemical; settings: mixed lipid compound/cholesterol/PEG-Glu2C18 dispersed in water, high-pressure extrusion 0.22 μm
Procedure: (§1) Compound 7, 8 or 9 (0.177 mmol), cholesterol (0.179 mmol) and PEG-Glu2C18 (1.0 μmol) were dissolved in benzene, and the mixture was freeze-dried to prepare a mixed lipid. 20 mg of this mixed lipid was dispersed in 1 mL of water for injection, and the resultant mixture was stirred for 6 hours. After that, liposome having a particle size of about 240 nm was prepared by means of the high-pressure extrusion method (final pore diameter: 0.22 μm).
as §1, with “Compound 3, 12” for “Compound 7, 8”, “or 13” for “or 9”, “(1.0 mmol)” for “(1.0 μmol)”

| pH at which the zeta potential changed from negative to positive [1] | liposome formation with the compound as main component [3] | Compound | degree of fusion ([2]; pH 6.5 (maximum)) | degree of fusion ([2]; pH 7.4) |
| --- | --- | --- | --- | --- |
| about 7.0 | liposome was formed | CCCCCCCCCCCCCCOC(=O)CCC(NC(=O)C(CCCCNC(=O)C(N)CCC(=O)O)NC(=O)C(N)CCC(=O)O)C(=O)OCCCCCCCCCCCCCC (stereo not shown) [Compound 12] | over 65% | about 45% |
| – | poor dispersibility | CCCCCCCCCCCCCCCCCCOC(=O)CCC(NC(=O)C(CCCCNC(=O)C(N)CCC(=O)O)NC(=O)C(N)CCC(=O)O)C(=O)OCCCCCCCCCCCCCCCCCC (stereo not shown) [Compound 13] | – | – |
| – | aggregated | CCCCCCCCCCCCCCCCOC(=O)CCC(NC(=O)C(CCCCNC(=O)C(N)CC(=O)O)NC(=O)C(N)CC(=O)O)C(=O)OCCCCCCCCCCCCCCCC (stereo not shown) [Compound 9] | – | – |
| about 5.5 | liposome was formed | CCCCCCCCCCCCCCCCOC(=O)CCC(NC(=O)C(CCCCNC(=O)C(N)CC(=O)O)NC(=O)C(N)CCC(=O)O)C(=O)OCCCCCCCCCCCCCCCC (stereo not shown) [Compound 7] | – | – |
| about 4.8 | liposome was formed | CCCCCCCCCCCCCCCCOC(=O)CCC(NC(=O)C(CCCCNC(=O)C(N)CCC(=O)O)NC(=O)C(N)CC(=O)O)C(=O)OCCCCCCCCCCCCCCCC (stereo not shown) [Compound 8] | – | – |
